Experimental data as given in article PMC7837508, “Interactions of the Diazabicyclooctane Serine β-Lactamase Inhibitor ETX1317 with Target Enzymes” (ACS Infectious Diseases, 2020).
Like-named read-outs stand apart in the source and are kept apart here.

Columns and labels:
AmpC = target: T1, AmpC (Pseudomonas aeruginosa, UniProt P24735); test: Partition ratio measurement; assay type: biochemical; settings: incubation 1 h, ambient temperature
T1 construct: made in house
Protocol: (§1) Partition ratios were measured as described previously[10] at ambient temperature in Buffer A. ETX1317 was freshly dissolved in assay buffer and an arithmetic dilution series was prepared from 0 to 12 μM in 1.2 μM steps. Each of these was mixed with an equal volume of 6 μM β-lactamase. At each time point, the mixtures were diluted in buffer to 2-fold the final reaction concentration of enzyme. Then, 22.5 μL of enzyme + inhibitor solutions were mixed with 22.5 μL of 200 μM nitrocefin substrate in a clear polystyrene 384-well assay plate. The absorbance at 490 nm was monitored at 10-s intervals for 10 min with a Spectramax Plus 384 plate reader. The slopes of the progress curves (ΔA490/s) were calculated. The percent of the control value for each inhibitor concentration was plotted versus the inhibitor:enzyme molar ratio. A best-fit line was calculated with a fixed point at 100% on the y-axis.

CTX-M-15 [1] = target: T2, CTX-M-15 (Escherichia coli, UniProt Q9EXV5); test: Partition ratio measurement; assay type: biochemical; settings: CTX-M-15, incubation 1 h, ambient temperature
T2 construct: made in house
T2 sequence (Q9EXV5 29-291, species assumed): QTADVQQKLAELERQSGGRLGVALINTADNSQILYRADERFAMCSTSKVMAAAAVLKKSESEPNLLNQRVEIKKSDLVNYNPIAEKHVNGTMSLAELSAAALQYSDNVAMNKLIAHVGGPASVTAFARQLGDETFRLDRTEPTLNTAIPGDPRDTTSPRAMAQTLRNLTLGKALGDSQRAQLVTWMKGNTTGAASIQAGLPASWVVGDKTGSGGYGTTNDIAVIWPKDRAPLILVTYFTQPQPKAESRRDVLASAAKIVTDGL
Protocol: as §1

KPC-2 [2] = target: T3, KPC-2 (Klebsiella pneumoniae, UniProt Q9F663); test: Partition ratio measurement; assay type: biochemical
T3 construct: made in house
T3 sequence (Q9F663 25-293, looked up, species assumed): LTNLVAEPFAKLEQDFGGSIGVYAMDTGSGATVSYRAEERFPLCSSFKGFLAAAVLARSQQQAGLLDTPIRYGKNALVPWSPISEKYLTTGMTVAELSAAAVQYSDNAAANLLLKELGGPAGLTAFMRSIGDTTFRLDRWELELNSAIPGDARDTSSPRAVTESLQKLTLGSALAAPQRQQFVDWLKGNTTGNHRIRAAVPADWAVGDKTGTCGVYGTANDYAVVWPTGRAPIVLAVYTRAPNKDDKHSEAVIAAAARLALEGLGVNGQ
Protocol: as §1

OXA-48 [3] = target: T4, OXA-48 (Klebsiella pneumoniae, UniProt Q6XEC0); test: Partition ratio measurement; assay type: biochemical; settings: OXA-48, incubation 1 h, ambient temperature
T4 construct: made in house
T4 sequence (Q6XEC0 23-265, looked up, species assumed): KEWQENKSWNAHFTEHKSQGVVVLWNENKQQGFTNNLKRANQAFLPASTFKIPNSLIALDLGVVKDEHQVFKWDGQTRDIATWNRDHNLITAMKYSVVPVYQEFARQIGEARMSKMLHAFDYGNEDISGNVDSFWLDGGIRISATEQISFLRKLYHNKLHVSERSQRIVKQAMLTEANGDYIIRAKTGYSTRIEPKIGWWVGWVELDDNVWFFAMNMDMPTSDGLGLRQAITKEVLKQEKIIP
Protocol: as §1

SHV-5 [4] = target: T5, SHV-5 (Klebsiella pneumoniae, UniProt P0A3M1); test: Partition ratio measurement; assay type: biochemical; settings: SHV-5, incubation 1 h, ambient temperature
T5 construct: made in house
T5 sequence (P0A3M1 22-286, species assumed): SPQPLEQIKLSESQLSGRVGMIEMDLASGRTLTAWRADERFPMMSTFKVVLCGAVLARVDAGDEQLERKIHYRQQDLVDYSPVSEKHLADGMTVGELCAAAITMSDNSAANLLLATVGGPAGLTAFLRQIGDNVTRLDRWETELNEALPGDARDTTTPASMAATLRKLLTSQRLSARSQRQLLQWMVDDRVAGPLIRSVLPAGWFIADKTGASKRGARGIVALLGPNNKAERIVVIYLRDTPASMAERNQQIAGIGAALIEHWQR
Protocol: as §1

CTX-M-15 [5] = target: T2, CTX-M-15; test: koff measurement by jump dilution; assay type: biochemical; settings: CTX-M-15, jump dilution, ambient temperature
Protocol: (§2) Dissociation rate constants (koff) were measured by the jump-dilution method at ambient temperature as described previously.[10] Enzymes at 500 000-fold the final β-lactamase assay concentration (see above) were incubated for 15–20 min with 3-fold molar excess of freshly dissolved ETX1317 at ambient temperature in Buffer A. The mixtures were then diluted 250 000-fold with Buffer A, and 22.5 μL of the dilutions was mixed with 22.5 μL of 200 μM nitrocefin in Buffer A. The absorbance at 490 nm was monitored at 30 s intervals for 2 h at ambient temperature with a Spectramax Plus 384 plate reader. Progress curves were fit by nonlinear regression using XLfit (ID Business Solutions, Boston, MA) to the following equation: [drawing 2] where P is A490, C is the initial A490, V0 is the initial rate of absorbance increase, Vs is the final rate of absorbance increase, t is time in seconds, and k is the first order rate constant for enzyme reactivation due to inhibitor dissociation, koff.

E. cloacae P99 [6] = target: T6, E. cloacae P99 (Enterobacter cloacae, UniProt P05364); test: koff measurement by jump dilution; assay type: biochemical; settings: ambient temperature
T6 construct: made in house
T6 sequence (P05364 21-381): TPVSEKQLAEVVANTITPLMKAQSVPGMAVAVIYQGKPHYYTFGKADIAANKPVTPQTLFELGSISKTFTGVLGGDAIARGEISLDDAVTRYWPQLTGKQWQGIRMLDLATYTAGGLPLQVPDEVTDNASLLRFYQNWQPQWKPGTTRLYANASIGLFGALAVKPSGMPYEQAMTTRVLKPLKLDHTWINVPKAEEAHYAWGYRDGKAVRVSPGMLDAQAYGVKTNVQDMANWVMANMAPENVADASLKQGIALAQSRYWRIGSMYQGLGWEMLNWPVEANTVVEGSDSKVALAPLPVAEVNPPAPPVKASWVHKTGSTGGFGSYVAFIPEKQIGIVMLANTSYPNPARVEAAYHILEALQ
Protocol: as §2

KPC-2 [7] = target: T3, KPC-2; test: koff measurement by jump dilution; assay type: biochemical; settings: KPC-2, jump dilution, ambient temperature
Protocol: as §2

P. aeruginosa AmpC [8] = target: T7, P. aeruginosa AmpC (Pseudomonas aeruginosa, UniProt P24735); test: koff measurement by jump dilution; assay type: biochemical; settings: ambient temperature
T7 construct: made in house
T7 sequence (P24735 27-397): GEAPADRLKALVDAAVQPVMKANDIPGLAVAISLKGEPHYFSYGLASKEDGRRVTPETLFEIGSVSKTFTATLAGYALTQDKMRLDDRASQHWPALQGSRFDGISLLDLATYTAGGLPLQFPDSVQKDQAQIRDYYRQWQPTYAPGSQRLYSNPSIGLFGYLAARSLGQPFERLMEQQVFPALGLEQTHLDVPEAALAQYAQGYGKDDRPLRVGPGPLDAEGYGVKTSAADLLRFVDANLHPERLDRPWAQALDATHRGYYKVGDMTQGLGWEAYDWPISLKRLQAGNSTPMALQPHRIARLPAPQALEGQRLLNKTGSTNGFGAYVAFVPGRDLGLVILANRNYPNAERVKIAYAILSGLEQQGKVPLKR
Protocol: as §2

SHV-5 [9] = target: T5, SHV-5; test: koff measurement by jump dilution; assay type: biochemical; settings: SHV-5, jump dilution, ambient temperature
Protocol: as §2

TEM-1 [10] = target: T8, TEM-1 (Escherichia coli, UniProt P62593); test: koff measurement by jump dilution; assay type: biochemical; settings: TEM-1, jump dilution, ambient temperature
T8 construct: made in house
T8 sequence (P62593 24-286 limits assumed): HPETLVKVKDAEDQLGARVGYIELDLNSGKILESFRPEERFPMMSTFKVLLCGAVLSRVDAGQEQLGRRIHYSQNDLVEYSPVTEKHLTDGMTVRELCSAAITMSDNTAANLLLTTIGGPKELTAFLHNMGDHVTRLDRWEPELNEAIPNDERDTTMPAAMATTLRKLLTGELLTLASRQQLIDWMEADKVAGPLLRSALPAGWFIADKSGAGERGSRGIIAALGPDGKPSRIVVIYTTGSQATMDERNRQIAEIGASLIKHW
Protocol: as §2

CTX-M-15 [11] = target: T2, CTX-M-15; test: β-lactamase acylation exchange (intact protein mass spectrometry); assay type: binding; settings: donor CTX-M-15, acceptor OXA-48, ambient temperature
Protocol: (§3) β-Lactamase acylation exchange experiments and intact protein mass spectrometry were performed as described previously.[10] OXA-48 was used as the acceptor enzyme in most cases because of the stability of the ETX1317–OXA-48 complex. When OXA-48 was the donor enzyme, CTX-M-15 was used as the acceptor. Each β-lactamase (5 μM) was incubated with or without 25 μM ETX1317 in a 60 μL volume of 50 mM HEPES (pH 7.0) buffer for 1 h at ambient temperature. The samples were diluted to 400 μL with ice-cold buffer and then concentrated to ∼40 μL with Microcon YM-10 centrifugal ultrafilters (Millipore-Sigma, Burlington, MA) at 14 000g for 45 min at 4 °C. The retentates were rediluted to 400 μL with ice-cold buffer and reconcentrated as before. This was repeated a further time, leaving no significant amount of unbound ETX1317. The sample volumes were restored to 60 μL with ice-cold buffer and the samples were divided into two equal aliquots of 30 μL. Buffer (6 μL) was added to one aliquot, and 6 μL of acceptor enzyme was added to the other. The final acceptor enzyme concentrations were 5 μM. Samples were incubated at ambient temperature for the times indicated and then stored at −80 °C until analysis. LC-MS analysis was performed on a Triple TOF5600+ (AB Sciex, Redwood City, CA) equipped with a DuoSpray Ion Source and a Shimadzu LC 20-AD HPLC system (Shimadzu Scientific Instruments, Marlborough, MA). A 2 μL portion of each sample was injected onto a Poroshell 300SB-C8 75 × 2.1 mm, 5 μm column (Agilent) at 30 °C with a gradient of acetonitrile (5–95%) in 0.1% formic acid for 3 min followed by a 1 min hold at 95% before returning to 5% acetonitrile at a flow rate of 0.4 mL/min. The mass spectrometer was operated in positive ion and intact protein mode with source temperature of 450 °C. LC-MS data were acquired in the TOF MS mode for m/z+ from 600 to 2000. Nebulizer gas (GS1), heater gas (GS2), and curtain gas were set at 60, 70, and 30 psi, respectively. Ion spray voltage was 5500 V. Declustering voltage was 100 V, and collision energy was 10 V. Peak masses for protein species were determined following spectrum deconvolution using PeakView version 2.2 software. Mass accuracy of intact proteins is ±1 Da.

Enterobacter cloacae P99 = target: T9, Enterobacter cloacae P99 (Enterobacter cloacae, UniProt P05364); test: as above; assay type: binding; settings: donor P99, acceptor OXA-48, ambient temperature
T9 construct: made in house
T9 sequence (P05364 21-381): as the sequence (P05364 21-381) above
Protocol: as §3

KPC-2 [12] = target: T3, KPC-2; test: as above; assay type: binding; settings: donor KPC-2, acceptor OXA-48, 19 h, ambient temperature
Protocol: as §3

OXA-48 [13] = target: T4, OXA-48; test: as above; assay type: binding; settings: donor OXA-48, acceptor CTX-M-15, 19 h, ambient temperature, no added bicarbonate
Protocol: as §3

[14] = target: T10, Pseudomonas aeruginosa AmpC (Pseudomonas aeruginosa, UniProt P24735); test: as above; assay type: binding; settings: acceptor OXA-48, 1, 2 and 17 h, ambient temperature
T10 construct: made in house
T10 sequence (P24735 27-397): as the sequence (P24735 27-397) above
Protocol: as §3

SHV-5 [15] = target: T5, SHV-5; test: as above; assay type: binding; settings: donor SHV-5, acceptor OXA-48, ambient temperature
Protocol: as §3

TEM-1 [16] = target: T8, TEM-1; test: as above; assay type: binding; settings: donor TEM-1, acceptor OXA-48, ambient temperature
Protocol: as §3

CTX-M-15 [17] = target: T2, CTX-M-15; settings: CTX-M-15, ambient temperature, pH 7.0, nitrocefin; ref 6 and 7; cited from earlier work
KPC-2 [18] = target: T3, KPC-2; settings: KPC-2, ambient temperature, pH 7.0, nitrocefin; ref 6 and 7; cited from earlier work
TEM-1 [19] = target: T8, TEM-1; parameters: method as in PMID 28665414, PMID 32658473; settings: ref 6 and 7, cited from earlier work; for kinact/Ki: TEM-1, ambient temperature, pH 7.0, nitrocefin
P. aeruginosa AmpC [20] = target: T7, P. aeruginosa AmpC; settings: ambient temperature, pH 7.0, nitrocefin, ref 6 and 7; cited from earlier work
E. cloacae P99 [21] = target: T6, E. cloacae P99; settings: cited from earlier work
OXA-24 = settings: OXA-24, ambient temperature, pH 7.0, nitrocefin; ref 6 and 7; cited from earlier work
OXA-48 [22] = target: T4, OXA-48; settings: OXA-48, ambient temperature, pH 7.0, nitrocefin; ref 6 and 7; cited from earlier work
CTX-M-14 = test system: CTX-M-14; parameters: method as in PMID 32658473; settings: higher than that of avibactam; cited from earlier work
SHV-5 [23] = target: T5, SHV-5; settings: SHV-5, ambient temperature, pH 7.0, nitrocefin; ref 6 and 7; cited from earlier work
OXA-10 = settings: OXA-10, ambient temperature, pH 7.0, nitrocefin; ref 6 and 7; cited from earlier work
OXA-23 = settings: OXA-23, ambient temperature, pH 7.0, nitrocefin; ref 6 and 7; cited from earlier work
CTX-M-15 [24] = target: T2, CTX-M-15; settings: cited from earlier work
KPC-2 [25] = target: T3, KPC-2; settings: cited from earlier work
SHV-5 [26] = target: T5, SHV-5; parameters: method as in PMID 28835096; settings: cited from earlier work
TEM-1 [27] = target: T8, TEM-1; settings: cited from earlier work
P. aeruginosa AmpC [28] = target: T7, P. aeruginosa AmpC; settings: cited from earlier work
E. cloacae P99 [29] = target: T6, E. cloacae P99; settings: cited from earlier work; remark: listed apart in the source
OXA-48 [30] = target: T4, OXA-48; settings: OXA-48, 37 °C, discontinuous jump dilution method covering 6 h; cited from earlier work
[31] = E. cloacae P99, ambient temperature, pH 7.0, nitrocefin, ref 6 and 7

T1 sequence (P24735 27-397): as above

CC1=C[C@@H](C(N)=O)N2C[C@@H]1N(O[C@H](F)C(=O)O)C2=O [ETX1317]
partition ratio (AmpC): 1.0 | partition ratio (CTX-M-15 [1]): 0.7 | partition ratio (KPC-2 [2]; KPC-2, 15 min incubation (not shown)): 1.1 | partition ratio (KPC-2 [2]; KPC-2, incubation of enzyme and inhibitor 3 h, ambient temperature): 1.1 | partition ratio (OXA-48 [3]): 1.1 | partition ratio (SHV-5 [4]): 0.9 | koff (CTX-M-15 [5]): 0.00013 s⁻¹ | koff (E. cloacae P99 [6]): 9.2e-05 s⁻¹ | koff (KPC-2 [7]): 0.00052 s⁻¹ | koff (P. aeruginosa AmpC [8]): 0.0006 s⁻¹ | koff (SHV-5 [9]): 0.002 s⁻¹ | koff (TEM-1 [10]): 0.008 s⁻¹ | acylation exchange (recyclization and dissociation of intact inhibitor) from donor to acceptor enzyme (CTX-M-15 [11]): observed | acylation exchange (recyclization and dissociation of intact inhibitor) from donor to acceptor enzyme (Enterobacter cloacae P99): observed | acylation exchange (recyclization and dissociation of intact inhibitor) from donor to acceptor enzyme (KPC-2 [12]): observed | acylation exchange (recyclization and dissociation of intact inhibitor) from donor to acceptor enzyme (OXA-48 [13]): lack of acylation exchange | acylation exchange (recyclization and dissociation of intact inhibitor) from donor to acceptor enzyme [14]: observed | acylation exchange (recyclization and dissociation of intact inhibitor) from donor to acceptor enzyme (SHV-5 [15]): observed | acylation exchange (recyclization and dissociation of intact inhibitor) from donor to acceptor enzyme (TEM-1 [16]): observed | kinact/Ki (CTX-M-15 [17]): 4.8 (±0.4) × 10^6 M^–1 s^–1 | kinact/Ki (KPC-2 [18]): 4.9 (±0.2) × 10^4 M^–1 s^–1 | Ki (TEM-1 [19]; TEM-1, equilibrium dissociation constant, inhibition not time-dependent on 30 s time scale): 0.34 nM | kinact/Ki (P. aeruginosa AmpC [20]): 1.20 (±0.04) × 10^4 M^–1 s^–1 | kinact/Ki (E. cloacae P99 [21]; [31]): 3.9 (±0.2) × 10^4 M^–1 s^–1 | kinact/Ki (OXA-24): 4.6 (±0.2) × 10^3 M^–1 s^–1 | kinact/Ki (OXA-48 [22]): 5.3 (±0.2) × 10^4 M^–1 s^–1 | potency of CTX-M-14 inhibition relative to avibactam (CTX-M-14): about 10 fold

NC(=O)[C@@H]1CC[C@@H]2CN1C(=O)N2OS(=O)(=O)O [avibactam]
kinact/Ki (CTX-M-15 [17]): 8 × 10^5 M^–1 s^–1 | kinact/Ki (KPC-2 [18]): 6 × 10^3 M^–1 s^–1 | kinact/Ki (SHV-5 [23]): 1 × 10^5 M^–1 s^–1 | kinact/Ki (TEM-1 [19]): 4 × 10^5 M^–1 s^–1 | kinact/Ki (P. aeruginosa AmpC [20]): 3 × 10^3 M^–1 s^–1 | kinact/Ki (E. cloacae P99 [21]; pH 7): 8 × 10^3 M^–1 s^–1 | kinact/Ki (OXA-10): 70 M^–1 s^–1 | kinact/Ki (OXA-24): 80 M^–1 s^–1 | kinact/Ki (OXA-48 [22]): 5 × 10^3 M^–1 s^–1

CC1=C[C@@H]2CN(C(=O)N2OS(=O)(=O)O)[C@@H]1C(N)=O [durlobactam]
kinact/Ki (CTX-M-15 [17]): 7 (±2) × 10^6 M^–1 s^–1 | kinact/Ki (KPC-2 [18]): 9.3 (±0.6) × 10^5 M^–1 s^–1 | kinact/Ki (SHV-5 [23]): 6.4 (±0.5) × 10^6 M^–1 s^–1 | kinact/Ki (TEM-1 [19]): 1.4 (±0.6) × 10^7 M^–1 s^–1 | kinact/Ki (P. aeruginosa AmpC [20]): 9 (±5) × 10^5 M^–1 s^–1 | kinact/Ki (E. cloacae P99 [21]; [31]): 2.3 (±0.4) × 10^6 M^–1 s^–1 | kinact/Ki (OXA-10): 9 (±2) × 10^3 M^–1 s^–1 | kinact/Ki (OXA-23): 5.1 (±0.2) × 10^3 M^–1 s^–1 | kinact/Ki (OXA-24): 9 (±2) × 10^3 M^–1 s^–1 | kinact/Ki (OXA-48 [22]): 8 (±2) × 10^5 M^–1 s^–1 | koff (CTX-M-15 [24]): 2.2 (±0.5) × 10^–4 s^–1 | koff (KPC-2 [25]): 1.0 (±0.1) × 10^–3 s^–1 | koff (SHV-5 [26]): 5.5 (±0.3) × 10^–4 s^–1 | koff (TEM-1 [27]): 1.4 (±0.2) × 10^–3 s^–1 | koff (P. aeruginosa AmpC [28]): 4 (±1) × 10^–3 s^–1 | koff (E. cloacae P99 [29]): 3.4 (±0.5) × 10^–4 s^–1 | koff (OXA-48 [30]): 2.5 (±0.3) × 10^–5 s^–1
